According to US5508383A, “Cyclic peptide LHRH antagonists” (Tap Holdings Inc., priority 1994, dated 1996):
Where a SMILES comes first, the peptide text is derived from it. Bridges are numbered along the chain shown (N, C = ends). [ ]: non-standard residue; d: D form. The star is where a group is joined. Propanoyl(3-(4-Cl-Ph)) = O=C(CCc1ccc(Cl)cc1)*; Phenylacetyl(4-F) = O=C(Cc1ccc(F)cc1)*; Lys(iPr) = CC(C)NCCCC[C@H](N)C(=O)O; NMeY = CN[C@@H](Cc1ccc(O)cc1)C(=O)O; Nicotinoyl = O=C(c1cccnc1)*

Biological target: T1, LHRH (Rattus norvegicus, UniProt P30969)
T1 construct: endogenous in cells; host or cells: pituitary cells (own knowledge of the cited method)
T1 sequence (P30969 1-327): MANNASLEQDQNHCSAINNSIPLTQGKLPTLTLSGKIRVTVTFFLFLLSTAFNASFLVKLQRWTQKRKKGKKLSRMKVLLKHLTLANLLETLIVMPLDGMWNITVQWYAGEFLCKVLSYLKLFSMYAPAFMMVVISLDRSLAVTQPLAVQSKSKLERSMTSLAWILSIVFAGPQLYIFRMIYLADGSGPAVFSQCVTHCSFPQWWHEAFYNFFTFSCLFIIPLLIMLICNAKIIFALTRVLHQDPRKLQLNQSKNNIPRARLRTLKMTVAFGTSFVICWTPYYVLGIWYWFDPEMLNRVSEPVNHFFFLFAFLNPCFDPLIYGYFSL
Assay: in vitro test for LHRH antagonist potency (pA2), shift of the leuprolide response curve
Assay type: cell-based
Conditions: negative logarithm of antagonist concentration required to shift the response curve produced by the agonist leuprolide to two-fold higher concentration
Description: Representative compounds of the present invention were evaluated in an in vitro test for LHRH antagonist potency (pA2). The test employed the method detailed in F. Haviv, et al. J. Med. Chem., 32: 2340-2344 (1989). The values of pA2 are the negative logarithms of the concentration of the particular antagonist test compound required to shift the response curve produced by the agonist leuprolide to two-fold higher concentration. (Leuprolide is the LHRH agonist having the structure 5-oxo-Pro^1 -His^2 -Trp^3 -Ser^4 -Tyr^5 -D-Leu^6 -Leu^7 -Arg^8 -Pro-^9 -NHEt and is disclosed and claimed in U.S. Pat. No. 4,005,063.) Typically pA2 values of 6.0 or greater are indicative of acceptable LHRH antagonist potency, with compounds having pA2 values of 9.0 or greater being preferred.

| pA2 | Compound | Kb |
| --- | --- | --- |
| 5.66 | 4FPhenylacetyl-c-{DGlu-Ser-NMeTyr-DLys(Nicotinyl)-Leu-Lys(N-epsilon-Isopropyl)-Pro-DLys}-NH2 [Example 15] | – |
| 9.58 | Ac-D2Nal-D4ClPhe-c-{DGlu-Ser-NMeTyr-DLys(Nicotinyl)-Leu-Lys(N-epsilon-Isopropyl)-Pro-DLys}-NH2 [Example 7] | – |
| 9.77 | Ac-D2Nal-D4ClPhe-c-{DGlu-Ser-NMeTyr-DLys(Nicotinyl)-Leu-Lys(N-epsilon-Isopropyl)-Pro-Lys}-NH2 [Example 12] | – |
| 9.66 | Ac-D2Nal-D4ClPhe-c-{DLys-Ser-Tyr-DLys(Nicotinyl)-Leu-Lys(N-epsilon-Isopropyl)-Pro-DGlu}-NH2 [Example 8] | – |
| 9.52 | Ac-D2Nal-D4ClPhe-c-{DOrn-Ser-NMeTyr-DLys(Nicotinyl)-Leu-Lys(N-epsilon-Isopropyl)-Pro-DGlu}-NH2 [Example 14] | – |
| 8.29 | NAc-D2Nal D4ClPhe-c-{DLys-Gly-NMeTyr-DLys(Nicotinyl)-Leu-Lys(N-epsilon-Isopropyl)-Gly-DGlu}-NH2 [Example 17] | – |
| 5.95 | NAc-c-{DGlu-Gly-NMeTyr-DLys(Nicotinyl)-Leu-Lys(N-epsilon-Isopropyl)-Sar-DLys}-NH2 [Example 19] | – |

Further lines, the compound ahead of its results:

| Compound | pA2 | Kb |
| --- | --- | --- |
| CC(=O)N[C@@H]1CCCCNC(=O)CC[C@H](C(N)=O)NC(=O)[C@@H]2CCCN2C(=O)[C@H](CCCCNC(C)C)NC(=O)[C@H](CC(C)C)NC(=O)[C@@H](CCCCNC(=O)c2cccnc2)NC(=O)[C@H](Cc2ccc(O)cc2)N(C)C(=O)[C@H](CO)NC1=O [Example 9, Ac-c-{DLys-Ser-NMeTyr-DLys(Nicotinyl)-Leu-Lys(N-epsilon-Isopropyl)-Pro-DGlu}-NH2] (Ac-[dK]S[NMeY][dK](Nicotinoyl)L[Lys(iPr)]P[dE]-NH2; lactam 1-8) | – | 6.17 nM |
| CC(C)C[C@@H]1NC(=O)[C@@H](CCCCNC(=O)c2cccnc2)NC(=O)[C@H](Cc2ccc(O)cc2)N(C)C(=O)[C@H](CO)NC(=O)[C@H](NC(=O)Cc2ccc(F)cc2)CCCCNC(=O)CC[C@H](C(N)=O)NC(=O)[C@@H]2CCCN2C(=O)[C@H](CCCCNC(C)C)NC1=O [Example 10, 4F-Phenylacetyl-c-{DLys-Ser-NMeTyr-DLys(Nicotinyl)-Leu-Lys(N-epsilon-Isopropyl)-Pro-DGlu}-NH2] ({Phenylacetyl(4-F)}-[dK]S[NMeY][dK](Nicotinoyl)L[Lys(iPr)]P[dE]-NH2; lactam 1-8) | – | 724 nM |
| CC(=O)N[C@@H]1CCC(=O)NCCCC[C@H](C(N)=O)NC(=O)[C@@H]2CCCN2C(=O)[C@H](CCCCNC(C)C)NC(=O)[C@H](CC(C)C)NC(=O)[C@@H](CCCCNC(=O)c2cccnc2)NC(=O)[C@H](Cc2ccc(O)cc2)N(C)C(=O)[C@H](CO)NC1=O [Example 11, Ac-c-{DGlu-Ser-NMeTyr-DLys(Nicotinyl)-Leu-Lys(N-epsilon-Isopropyl)-Pro-DLys}-NH2] (Ac-[dE]S[NMeY][dK](Nicotinoyl)L[Lys(iPr)]P[dK]-NH2; lactam 1-8) | – | 20.4 nM |
| CC(C)C[C@@H]1NC(=O)[C@@H](CCCCNC(=O)c2cccnc2)NC(=O)[C@H](Cc2ccc(O)cc2)N(C)C(=O)[C@H](CO)NC(=O)[C@H](NC(=O)CCc2ccc(Cl)cc2)CCCCNC(=O)CC[C@H](C(N)=O)NC(=O)[C@@H]2CCCN2C(=O)[C@H](CCCCNC(C)C)NC1=O [Example 13, 4ClPhenylpropionyl-c-{DLys-Ser-NMeTyr-DLys(Nicotinyl)-Leu-Lys(N-epsilon-Isopropyl)-Pro-DGlu}-NH2] ({Propanoyl(3-(4-Cl-Ph))}-[dK]S[NMeY][dK](Nicotinoyl)L[Lys(iPr)]P[dE]-NH2; lactam 1-8) | – | 19.1 nM |
| CC(C)C[C@@H]1NC(=O)[C@@H](CCCCNC(=O)c2cccnc2)NC(=O)[C@H](Cc2ccc(O)cc2)N(C)C(=O)[C@H](CO)NC(=O)[C@H](NC(=O)CCc2ccc(Cl)cc2)CCCCNC(=O)CC[C@H](C(N)=O)NC(=O)CNC(=O)[C@H](CCCCNC(C)C)NC1=O [Example 16, 4ClPhenylpropionyl-c-{DLys-Ser-NMeTyr-DLys(Nicotinyl)-Leu-Lys(N-epsilon-Isopropyl)-Gly-DGlu}-NH2] ({Propanoyl(3-(4-Cl-Ph))}-[dK]S[NMeY][dK](Nicotinoyl)L[Lys(iPr)]G[dE]-NH2; lactam 1-8) | – | 40.7 nM |
| CC(C)C[C@@H]1NC(=O)[C@@H](CCCCNC(=O)c2cccnc2)NC(=O)[C@H](Cc2ccc(O)cc2)N(C)C(=O)CNC(=O)[C@H](NC(=O)CCc2ccc(Cl)cc2)CCCCNC(=O)CC[C@H](C(N)=O)NC(=O)CNC(=O)[C@H](CCCCNC(C)C)NC1=O [Example 18, 4ClPhepropionyl-c-{DLys-Gly-NMeTyr-DLys(Nicotinyl)-Leu-Lys(N-epsilon-Isopropyl)-Gly-DGlu}-NH2] ({Propanoyl(3-(4-Cl-Ph))}-[dK]G[NMeY][dK](Nicotinoyl)L[Lys(iPr)]G[dE]-NH2; lactam 1-8) | – | > 1000 nM |
| Ac-D2Nal-D4ClPhe-c-{DLys-Ser-NMeTyr-DLys(Nicotinyl)-Leu-Lys(N-epsilon-Isopropyl)-Pro-DGlu}-NH2 [Example 1] | 10.16 | – |
| Ac-D2Nal-D4ClPhe-c-{DLys-Ser-NMeTyr-DLys(Nicotinyl)-Leu-Lys(N-epsilon-Isopropyl)-Pro-Glu}-NH2 [Example 4] | 10.05 | – |
| Ac-D2Nal-D4ClPhe-c-{DLys-Ser-Tyr-DLys(Nicotinyl)-Leu-Lys(N-epsilon-Isopropyl)-Pro-Glu}-NH2 [Example 2] | 9.27 | – |
| Ac-D2Nal-D4ClPhe-c-{Glu-Ser-NMeTyr-DLys(Nicotinyl)-Leu-Lys(N-epsilon-Isopropyl)-Pro-DOrn}-NH2 [Example 6] | 7.54 | – |
| Ac-D2Nal-D4ClPhe-c-{Lys-Ser-NMeTyr-DLys(Nicotinyl)-Leu-Lys(N-epsilon-Isopropyl)-Pro-DGlu}-NH2 [Example 3] | 8.73 | – |
| Ac-D2Nal-D4ClPhe-c-{Lys-Ser-NMeTyr-DLys(Nicotinyl)-Leu-Lys(N-epsilon-Isopropyl)-Pro-Glu}-NH2 [Example 5] | 8.2 | – |
